Consider one compound from patent publication US20150374394A1, “SONOLYSIS WITH BIODEGRADABLE NANOPARTICLES” (THE BOARD OF TRUSTEES OF THE UNIVERSITY OF ARKANSAS, priority 2012, published 2015).

The assay concerns clots formed from pooled rabbit plasma with rabbit blood cells. The experiment in a line: In vitro sonothrombolysis (STBL) of clots with MBs, CPDL, tPA and/or 450 nm StNPs, pulsed 1 MHz ultrasound. The conditions noted are these: pulsed 1 MHz ultrasound 15 min, in bovine calf serum, 0.5 mL/min; control ultrasound alone; 3 μm MBs, 0.1 mg/ml tPA, 0.06% w/V CPDL nanoemulsion. As for the experimental part:
FIG. 1 depicts a graph showing the potentiation of sonothrombolysis (STBL) efficacy by microbubbles (MBs) and/or a nanoemulsion of cyclopentadecanolide with or without tissue plasminogen activator (tPA). […] STBL was performed with fibrin-rich clots (see Example 2) using pulsed, 1 MHz ultrasound for 15 min. The MBs, tPA, StNPs etc. were suspended in bovine calf serum and introduced at a flow rate of 0.5 mL/min. STBL efficacy is reported as % clot lysis. Abbreviations: US=ultrasound; MBs=microbubbles; CPDL=cyclopentadecanolide; StNPs=starch nanoparticles; tPA=tissue plasminogen activator.
The clots used in these experiments were formed by mixing pooled rabbit plasma with rabbit blood cells (final volume equal to 2 mL; the volume of whole rabbit blood from which the cells were obtained), incubating this mixture for 24 h at 37° C. and then curing the formed clots for 24 h at 5° C. […] The StNPs were diluted to have an Optical Density reading at 530 nm (OD530) of 1.0. […] STBL efficacy was measured as the percent of the initial clot mass that was lost from the clot during the 15 min treatment time.

In the case of `O=C1CCCCCCCCCCCCCCO1` [CPDL, cyclopentadecanolide], the “STBL efficacy (FIG. 1), in words” value is “improved STBL efficacy markedly”.
